Measurements from patent publication US7868013B2, “Cycloalkyl substituted pyrimidinediamine compounds and their uses” (Rigel Pharmaceuticals, Inc., priority 2004, dated 2011).
Read-outs that look alike come from different tables or passages of the source.

Legend:
A549 (lung carcinoma) = assay: In vitro antiproliferation assay, A549 cells (TABLE 1 6 point assay; TABLE 2); format: cell-based; conditions: A549 cells, read-out: IC50, A549 cells
Experimental: (§1) Certain compounds were tested against other cell types for their ability to inhibit proliferation in standard antiproliferation assays.

[1] = test system: H1299 (non-small cell lung carcinoma); assay: In vitro antiproliferation assay, H1299 cells (TABLE 1 6 point assay; TABLE 2); format: cell-based; conditions: Homo sapiens, NCI-H1299, 6 point assay; H1299 cells; read-out: IC50, H1299 cells
Experimental: as §1

[2] = Homo sapiens, A549, 6 point assay

SMILES	IC50 (A549 (lung carcinoma); [2]) [nM]	IC50 [1] [nM]	IC50 (A549 (lung carcinoma); 6 point assay) [nM]
COCc1cc(Nc2ncc(F)c(N[C@H]3CCC[C@H]3C(N)=O)n2)ccc1N1CCN(C)CC1 (racemic) [compound 216, Racemic-cis-N4-(2-aminocarbonylcyclopent-1-yl)-5-fluoro-N2-[4-(4-methylpiperazin-1-yl)-3-methoxymethylenephenyl]-2,4-pyrimidinediamine]	100 to 1000	100 to 1000	
CN1CCN(c2ccc(Nc3ncc(F)c(N[C@H]4CCC[C@H]4C(N)=O)n3)cc2CO)CC1 (racemic) [compound 217, Racemic-cis-N4-(2-aminocarbonylcyclopent-1-yl)-5-fluoro-N2-[3-hydroxymethylene-4-(4-methylpiperazin-1-yl)phenyl]-2,4-pyrimidinediamine]	100 to 1000	1000 to 10000	
COC(=O)[C@@H]1CCC[C@@H]1Nc1nc(Nc2ccc(N3CCN(C)CC3)c(C)c2)ncc1F (racemic) [compound 218, Racemic-cis-5-fluoro-N2-[3-methyl-4-(4-methylpiperazin-1-yl)phenyl]-N4-(2-methoxycarbonylcyclopent-1-yl)-2,4-pyrimidinediamine]	1000 to 10000	1000 to 10000	
Cc1cc(Nc2ncc(F)c(N[C@H]3CCCC[C@H]3C(N)=O)n2)ccc1N1CCN(C)CC1 (racemic) [compound 223, Racemic-cis-N4-(2-aminocarbonylcyclohex-1-yl)-5-fluoro-N2-[3-methyl-4-(4-methylpiperazin-1-yl)phenyl]-2,4-pyrimidinediamine]		1000 to 10000	100 to 1000
Cc1cc(Nc2ncc(F)c(N[C@H]3C=CCC[C@H]3C(N)=O)n2)ccc1N1CCN(C)CC1 (racemic) [compound 227, Racemic-cis-N4-(2-aminocarbonylcyclohex-5-ene-1-yl)-5-fluoro-N2-[3-methyl-4-(4-methylpiperazin-1-yl)phenyl]-2,4-pyrimidinediamine]	1000 to 10000	1000 to 10000	
Cc1cc(Nc2ncc(F)c(N[C@@H]3CC=CC[C@H]3C(N)=O)n2)ccc1N1CCN(C)CC1 (racemic) [compound 229, Racemic-N4-(2-aminocarbonylcyclohex-4-ene-1-yl)-5-fluoro-N2-[3-methyl-4-(4-methylpiperazin-1-yl)phenyl]-2,4-pyrimidinediamine]	> 10000	> 10000	
CN1CCN(c2ccc(Nc3ncc(F)c(NC4C5C=CC(C5)C4C(N)=O)n3)cc2)CC1 (racemic) [compound 230, Racemic-(2-exo,3-exo)-N4-(3-aminocarbonylbicyclo[2.2.1]hept-5-en-2-yl)-5-fluoro-N2-[4-(4-methylpiperazin-1-yl)phenyl]-2,4-pyrimidinediamine]	≤ 100	≤ 100	
CN1CCN(c2cccc(Nc3ncc(F)c(NC4C5C=CC(C5)C4C(N)=O)n3)c2)CC1 (racemic) [compound 231, Racemic-(2-exo,3-exo)-N4-(3-aminocarbonylbicyclo[2.2.1]hept-5-en-2-yl)-5-fluoro-N2-[3-(4-methylpiperazin-1-yl)]phenyl-2,4-pyrimidinediamine]	≤ 100	≤ 100	
Cc1cc(Nc2ncc(F)c(NC3C4C=CC(C4)C3C(N)=O)n2)ccc1N1CCN(C(C)C)CC1 (racemic) [compound 232, Racemic-(2-exo,3-exo)-N4-(3-aminocarbonylbicyclo[2.2.1]hept-5-en-2-yl)-5-fluoro-N2-[4-(4-isopropylpiperazin-1-yl)-3-methylphenyl]-2,4-pyrimidinediamine]	≤ 100	≤ 100	
CN1CCN(c2ccc(Nc3ncc(F)c(NC4C5C=CC(C5)C4C(N)=O)n3)cc2Cl)CC1 (racemic) [compound 233, Racemic-(2-exo,3-exo)-N4-(3-aminocarbonylbicyclo[2.2.1]hept-5-en-2-yl)-N2-[3-chloro-4-(4-methylpiperazin-1-yl)phenyl]-5-fluoro-2,4-pyrimidinediamine]	≤ 100	≤ 100	
COCc1cc(Nc2ncc(F)c(NC3C4C=CC(C4)C3C(N)=O)n2)ccc1N1CCN(C)CC1 (racemic) [compound 235, Racemic-(2-exo,3-exo)-N4-(3-aminocarbonylbicyclo[2.2.1]hept-5-en-2-yl)-5-fluoro-N2-[3-methoxymethyl-4-(4-methylpiperazin-1-yl)phenyl)-2,4-pyrimidinediamine]	≤ 100	≤ 100	
CN1CCN(c2ccc(Nc3ncc(F)c(NC4C5C=CC(C5)C4C(N)=O)n3)cc2CO)CC1 (racemic) [compound 236, Racemic-(2-exo,3-exo)-N4-(3-aminocarbonylbicyclo[2.2.1]hept-5-en-2-yl)-5-fluoro-N2-[3-hydroxymethyl-4-(4-methylpiperazin-1-yl)phenyl]-2,4-pyrimidinediamine]	≤ 100	≤ 100	
CN1CCN(c2ccc(Nc3ncc(F)c(NC4C5C=CC(C5)C4C(N)=O)n3)cc2F)CC1 (racemic) [compound 239, Racemic-(2-exo,3-exo)-N4-(3-aminocarbonylbicyclo[2.2.1]hept-5-en-2-yl)-5-fluoro-N2-[3-fluoro-4-(4-methylpiperazin-1-yl)phenyl]-2,4-pyrimidinediamine]	≤ 100	≤ 100	
Cc1cc(Nc2ncc(F)c(N[C@@H]3[C@H]4CC[C@H](C4)[C@@H]3C(N)=O)n2)ccc1N1CCN(C)CC1 (racemic) [compound 240, Racemic-(2-exo,3-exo)-N4-(3-aminocarbonylbicyclo[2.2.1]hept-2-yl)-5-fluoro-N2-[3-methyl-4-(4-methylpiperazin-1-yl)phenyl]-2,4-pyrimidinediamine]	≤ 100	≤ 100	
CCN1CCN(c2ccc(Nc3ncc(F)c(NC4C5C=CC(C5)C4C(N)=O)n3)cc2C)CC1 (racemic) [compound 241, Racemic-(2-exo,3-exo)-N4-(3-aminocarbonylbicyclo[2.2.1]hept-5-en-2-yl)-N2-[4-(4-ethylpiperazin-1-yl)-3-methylphenyl]-5-fluoro-2,4-pyrimidinediamine]	≤ 100	≤ 100	
CN1CCN(c2ccc(Nc3ncc(F)c(NC4C5C=CC(C5)C4C(N)=O)n3)cc2C#N)CC1 (racemic) [compound 243, Racemic-(2-exo,3-exo)-N4-(3-aminocarbonylbicyclo[2.2.1]hept-5-en-2-yl)-N2-[3-cyano-4-(4-methylpiperazin-1-yl)phenyl]-5-fluoro-2,4-pyrimidinediamine]	≤ 100	≤ 100	
Cc1cc(Nc2ncc(F)c(NC3C4C=CC(C4)C3C(N)=O)n2)ccc1N1CCN(C2CCCCC2)CC1 (racemic) [compound 245, Racemic-(2-exo,3-exo)-N4-(3-aminocarbonylbicyclo[2.2.1]hept-5-en-2-yl)-N2-[4-(4-cyclohexylpiperazin-1-yl)-3-methylphenyl]-5-fluoro-2,4-pyrimidinediamine]	≤ 100	≤ 100	
Cc1cc(Nc2ncc(F)c(NC3C4C=CC(C4)C3C(N)=O)n2)ccc1O (racemic) [compound 250, Racemic-(2-exo,3-exo)-N4-(3-aminocarbonylbicyclo[2.2.1]hept-5-en-2-yl)-5-fluoro-N2-[(4-hydroxy-3-methyl)phenyl]-2,4-pyrimidinediamine]	≤ 100	≤ 100	
Cc1cc(Nc2ncc(F)c(NC3C4C=CC(C4)C3C(N)=O)n2)ccc1N1CCSCC1 (racemic) [compound 251, Racemic-(2-exo,3-exo)-N4-(3-aminocarbonylbicyclo[2.2.1]hept-5-en-2-yl)-5-fluoro-N2-[(3-methyl-1-thiomorpholin-4-yl)phenyl]-2,4-pyrimidinediamine]	≤ 100	≤ 100	
Cc1cc(Nc2ncc(F)c(NC3C4CCC(C4)C3C(=O)NC3CC3)n2)ccc1N1CCN(C)CC1 (racemic) [compound 252, Racemic-(2-exo,3-exo)-N4-(3-N-cyclopropylaminocarbonylbicyclo[2.2.1]hept-2-yl)-5-fluoro-N2-[3-methyl-4-(4-methylpiperazin-1-yl)phenyl]-2,4-pyrimidinediamine]	≤ 100	≤ 100	
CNC(=O)c1cc(Nc2ncc(F)c(NC3C4C=CC(C4)C3C(=O)OC)n2)ccc1N1CCN(C)CC1 (racemic) [compound 254, Racemic-(2-exo,3-exo)-5-fluoro-N4-(3-methoxycarbonylbicyclo [2.2.1]hept-5-en-2-yl)-N2-[3-methylaminocarbonyl-4-(4-methylpiperazin-1-yl)phenyl]-2,4-pyrimidinediamine]	1000 to 10000	1000 to 10000	
CNC(=O)c1cc(Nc2ncc(F)c(NC3C4C=CC(C4)C3C(N)=O)n2)ccc1N1CCN(C)CC1 (racemic) [compound 255, Racemic-(2-exo,3-exo)-N4-(3-aminocarbonylbicyclo[2.2.1]hept-5-en-2-yl)-5-fluoro-N2-[3-methylaminocarbonyl-4-(4-methylpiperazin-1-yl)phenyl]-2,4-pyrimidinediamine]	100 to 1000	100 to 1000	
COc1cc(Nc2ncc(F)c(NC3C4C=CC(C4)C3C(N)=O)n2)ccc1N1CCN(C)CC1 (racemic) [compound 256, Racemic-(2-exo,3-exo)-N4-(3-aminocarbonylbicyclo[2.2.1]hept-5-en-2-yl)-5-fluoro-N2-[3-methoxy-4-(4-methylpiperazin-1-yl)phenyl]-2,4-pyrimidinediamine]	≤ 100	≤ 100	
CN1CCN(c2ccc(Nc3ncc(F)c(NC4C5C=CC(C5)C4C(N)=O)n3)cc2C(N)=O)CC1 (racemic) [compound 260, Racemic-(2-exo,3-exo)-N2-[3-aminocarbonyl-4-(4-methylpiperazin-1-yl)phenyl]-N4-(3-aminocarbonylbicyclo[2.2.1]hept-5-en-2-yl)-5-fluoro-2,4-pyrimidinediamine]	100 to 1000	100 to 1000	
